Measured values taken from patent publication US9499553B2 (CHUGAI SEIYAKU KABUSHIKI KAISHA, priority 2013, dated 2016).

Experiments:
human PiT-2 = molecular target: T1, human PiT-2 (Homo sapiens, UniProt Q08357); assay: Inhibitory effect on 33PO4 uptake into human PiT-2-expressing CHO cells; type: cell-based; conditions: pH 6.5, read-out: IC50 against 33PO4 uptake into human PiT-2-expressing cells
T1 construct: expressed in transfected cells; host or cells: CHO cells
T1 sequence (Q08357 1-652): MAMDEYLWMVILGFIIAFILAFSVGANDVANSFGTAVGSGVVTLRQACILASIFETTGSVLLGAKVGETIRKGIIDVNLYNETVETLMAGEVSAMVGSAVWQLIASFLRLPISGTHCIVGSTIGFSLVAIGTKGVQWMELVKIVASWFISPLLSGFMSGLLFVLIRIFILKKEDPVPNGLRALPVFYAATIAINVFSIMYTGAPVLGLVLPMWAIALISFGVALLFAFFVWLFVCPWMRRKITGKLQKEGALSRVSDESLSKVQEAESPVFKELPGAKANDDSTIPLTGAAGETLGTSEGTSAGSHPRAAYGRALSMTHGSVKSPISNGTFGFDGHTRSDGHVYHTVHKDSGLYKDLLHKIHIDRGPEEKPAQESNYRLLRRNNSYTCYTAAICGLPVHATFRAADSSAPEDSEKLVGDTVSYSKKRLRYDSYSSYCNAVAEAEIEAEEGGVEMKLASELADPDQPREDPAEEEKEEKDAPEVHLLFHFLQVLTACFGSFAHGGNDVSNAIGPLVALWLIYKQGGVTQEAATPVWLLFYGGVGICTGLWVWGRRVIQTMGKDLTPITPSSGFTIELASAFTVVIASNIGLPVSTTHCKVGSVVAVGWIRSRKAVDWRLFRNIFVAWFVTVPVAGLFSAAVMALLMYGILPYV
How it was run: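 CHO cells transfected with human PiT-2 or empty vector, then exposed to ^33PO4 at room temperature after compound preincubation. Uptake counted by scintillation. Inhibition computed from PiT-2 minus vector-cell uptake, relative to the DMSO control.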

[1] = test system: chronic kidney disease model rat; assay: Suppressive effect on rise in serum creatinine concentration of chronic kidney disease model rat; type: in vivo; conditions: dosage 0.3% in feed, 14 weeks
Description: Test Example 7: Suppressive Effect on Rise in Serum Creatinine Concentration of Chronic Kidney Disease Model Rat
A group given feed non-supplemented with the test compound was used as a reference pathological group, and a group neither subjected to the kidney removal nor antibody administration and given feed non-supplemented with the test compound was used as a normal group. Fourteen weeks after the start of administration of the test compound, blood was collected from the abdominal aorta and serum was collected. As an indicator of renal damage, serum creatinine concentrations were measured by an enzyme assay (creatinase-sarcosine oxidase-POD method). The rate of suppression of a rise in serum creatinine concentration was determined according to the following expression: Rate (%) of suppression of a rise in serum creatinine concentration=(1−[(Serum creatinine concentration of the test compound-treated pathological group)−(Serum creatinine concentration of the normal group)]/[(Serum creatinine concentration of the reference pathological group)−(Serum creatinine concentration of the normal group)])×100

[2] = test system: chronic kidney disease model rat; assay: Suppressive effect on calcium deposition in blood vessel of chronic kidney disease model rat; type: in vivo; conditions: thoracic aorta, dosage 0.3% in feed, 14 weeks
Method: Test Example 9: Suppressive Effect on Calcium Deposition in Blood Vessel of Chronic Kidney Disease Model Rat
From the same animal as that in Test Example 7, the thoracic aorta was collected 14 weeks after the start of administration of the test compound, and the dry weight was measured. The measured dry thoracic aorta was subjected to ashing and dissolved in a certain amount of hydrochloric acid, and then the calcium concentration in the solution was measured using OCPC method to determine the amount of calcium per gram of the thoracic aorta dry weight (Katsumata K, Kusano K, Hirata M, Tsunemi K, Nagano N, Burke S K, Fukushima N. Sevelamer hydrochloride prevents ectopic calcification and renal osteodystrophy in chronic renal failure rats. Kidney Int. 2003 August; 64(2): 441-450.) The rate of suppression of calcium deposition in blood vessel was determined according to the following expression: Rate (%) of suppression of calcium deposition in blood vessel=(1−[(Amount of calcium per gram of dried blood vessel of the test compound-treated pathological group)−(Amount of calcium per gram of dried blood vessel of the normal group)]/[(Amount of calcium per gram of dried blood vessel of the reference pathological group)−(Amount of calcium per gram of dried blood vessel of the normal group)])×100

`COCCN(C)CCOc1ccc(CN2C(=O)C(C(=O)Nc3ccc(C(F)(F)F)cc3-c3cc(C(F)(F)F)ncn3)=C(O)C3(CCCC3)N2C)c(F)c1F` [Example 14, 7-[[2,3-Difluoro-4-[2-[2-methoxyethyl(methyl)amino]ethoxy]phenyl]methyl]-10-hydroxy-6-methyl-8-oxo-N-[4-(trifluoromethyl)-2-[6-(trifluoromethyl)pyrimidin-4-yl]phenyl]-6,7-diazaspiro[4.5]dec-9-ene-9-carboxamide] was tested, and the IC50 (human PiT-2) was 2600 nM, the “Rate of inhibition (%) (suppression of a rise in serum creatinine concentration)” value [1] was 24% and the “Rate of inhibition (%) (suppression of calcium deposition in blood vessel)” value [2] was 100% 100%.
